These results are taken from patent publication US9469639B2, “Naphthylurea derivatives and medical applications thereof” (RADIANT PHARMA & TECH. CO., LTD., priority 2013, dated 2016).

Usually solubility stands for the dissolved amount per volume that the medium holds. High values mean much dissolved substance, low ones little dissolved substance.

A short description of the series: Water-solubility test. The format is physicochemical. The following applies: 22° C.; for solubility at 24 h: water, pH 5.5, water, thermodynamic from solid, ultrasonic mixing for 24 hours, pH5.5, average of two experiments.

Values after ≈ are worked out from the molar mass of the structure shown.

The compound `Cc1cccc(NC(=O)Nc2ccc(-c3cncc4[nH]nc(N)c34)c3ccccc23)c1` [Compound (IV)] returned a solubility at 24 h of 0.0925 µg/mL (≈ 0.226 µM).

The compound `Cc1ccc(F)c(NC(=O)Nc2ccc(-c3ccc(OCCCN4CCCC4)c4[nH]nc(N)c34)c3ccccc23)c1` [Compound (V)] displayed a solubility at 24 h of 0.64 µg/mL (≈ 1.16 µM). Under “pH5.5, ratio versus compound (IV)”, the “Water solubility relative to compound (IV)” value came to 6.9 times.
